The values below come from patent US11292809B2, “Crystals of glycyrrhizic acid derivatives, crystalline compositions, pharmaceutical compositions and uses thereof” (CHIA TAI TIANQING PHARMACEUTICAL GROUP CO., LTD., priority 2018, dated 2022).

A short description of series [1]: Color and clarity of solution test. The settings on record: 0.5 g dissolved in 10 ml dilute ammonia solution (1→100). Format: physicochemical. On the procedure:
“Color and clarity of solution test” is particularly important, and also a required inspection item for active ingredients used in preparations for injection. Weigh 0.5 g of the crystalline form A obtained in example 5, dissolve it with 10 ml dilute ammonia solution (1→100), and the solution may be clear and colorless. If the solution is colored, compare it with the yellow 2 #standard color solution (Method 1, General Principles 0901, the Chinese Pharmacopoeia), and the former should not be intensely colored than the latter. If the solution is turbid, compare it with the turbidity 0.5 #standard solution (Method 1, General Principles 0902, the Chinese Pharmacopoeia), and the former should not be more intensely turbid than the latter.

A short description of series [2]: Measurement of particle size and specific surface area. Format: physicochemical. From the text: For the purpose of this application, “X10” represents the particle diameter corresponding to 10% of the particle size distribution, in other words, cumulative 10% of the particles in all the tested particles are smaller than X10; “X50” represents the particle size corresponding to 50% of the particle size distribution, in other words, cumulative 50% of the particles in all the tested particles are smaller than X50; “X90” represents the particle size corresponding to 90% of the particle size distribution, in other words, cumulative 90% of the particles in all the tested particles are smaller than X90.
Sv and Sm denote specific surface areas, i.e., total surface area of a material per unit volume (Sv) and total surface area of a material per unit of mass (Sm) respectively.
Particle size distribution is determined according to the laser method using the instrument below: full-automatic dry-wet laser particle sizer, VIBRI (HELOSBR).

Series [3] concerns liver-injury animal models induced by different hepatotoxic agents. The settings on record: cited from earlier work.
The mark [4] stands for this setting: particle size distribution, laser method.
The mark [5] stands for this setting: liver-injury animal models induced by different hepatotoxic agents.

For `CC1(C)[C@@H](O[C@H]2O[C@H](C(=O)[O-])[C@@H](O)[C@H](O)[C@H]2O[C@@H]2O[C@H](C(=O)[O-])[C@@H](O)[C@H](O)[C@H]2O)CC[C@]2(C)[C@H]3C(=O)C=C4[C@H]5C[C@@](C)(C(=O)O)CC[C@]5(C)CC[C@@]4(C)[C@]3(C)CC[C@@H]12.[Mg+2]` [crystalline form A, magnesium isoglycyrrhizinate], the clarity test result in series [1] (compared with turbidity 0.5# standard solution) was “The solution is clear, and less”. The “color of solution test” value in series [1] (compared with yellow 2# standard color solution) is “The solution is colorless, and less”. In series [2] (setting [4]), this molecule returned an X10 of 6.19 μm, an X50 of 42.18 μm and an X90 of 91.80 μm. This molecule also returned a Sm in series [2] (specific surface area per unit of mass) of 0.64 m^2/g. In addition, the Sv in series [2] (specific surface area per unit volume) is recorded as 0.44 m^2/cm^3.

In the case of `CC1(C)[C@@H](O[C@H]2O[C@H](C(=O)[O-])[C@@H](O)[C@H](O)[C@H]2O[C@@H]2O[C@H](C(=O)[O-])[C@@H](O)[C@H](O)[C@H]2O)CC[C@]2(C)[C@H]3C(=O)C=C4[C@H]5C[C@@](C)(C(=O)O)CC[C@]5(C)CC[C@@]4(C)[C@]3(C)CC[C@@H]12.[Mg+2]` [magnesium isoglycyrrhizinate], in series [3] (setting [5]), the “hepatocyte degeneration and necrosis and inflammatory cell infiltration” value was “alleviate”; the hepatocyte regeneration result is given as “promote”; the “serum transaminase elevation in animals” value is listed as “significantly inhibit”. In addition, the “effect against liver injury compared with natural glycyrrhizic acids” value in series [3] (versus natural glycyrrhizic acids) is listed as “obviously superior”.
